Assay: xn = mol fraction of the nth substance listed
Conditions: 100 kPa

CCCCCn1cc[n+](C)c1.O=S(=O)([N-]S(=O)(=O)C(F)(F)F)C(F)(F)F + O
x2 = 0.2211
Conditions	viscosity [mPa·s]
298.15 K	38.65
303.15 K	31.67
308.15 K	26.32
323.15 K	16.22
328.15 K	14.08
333.15 K	12.32
338.15 K	10.87
343.15 K	9.65
348.15 K	8.63
353.15 K	7.75
358.15 K	7
363.15 K	6.36

CCn1cc[n+](CC)c1.O=S(=O)([N-]S(=O)(=O)C(F)(F)F)C(F)(F)F + O
x2 = 0.2772
Conditions	viscosity [mPa·s]
298.15 K	19.32
303.15 K	16.55
308.15 K	14.34
313.15 K	12.53
323.15 K	9.8
328.15 K	8.75
333.15 K	7.87
338.15 K	7.11
343.15 K	6.46
348.15 K	5.89
353.15 K	5.39
363.15 K	4.57

CCCCn1cc[n+](CCCC)c1.O=S(=O)([N-]S(=O)(=O)C(F)(F)F)C(F)(F)F + O
x2 = 0.1843
Conditions	viscosity [mPa·s]
298.15 K	48.47
303.15 K	39.12
313.15 K	26.74
318.15 K	22.52
323.15 K	19.19
328.15 K	16.51
333.15 K	14.32
338.15 K	12.53
343.15 K	11.04
348.15 K	9.78
353.15 K	8.73

CCCCCCCCCn1cc[n+](C)c1.O=S(=O)([N-]S(=O)(=O)C(F)(F)F)C(F)(F)F + O
x2 = 0.1736
Conditions	viscosity [mPa·s]
303.15 K	57.66
313.15 K	39.1
328.15 K	22.64
333.15 K	19.7
338.15 K	16.81
343.15 K	14.67
348.15 K	12.89
353.15 K	11.68

CCCCCCn1cc[n+](CCCCCC)c1.O=S(=O)([N-]S(=O)(=O)C(F)(F)F)C(F)(F)F + O
x2 = 0.1489
Conditions	viscosity [mPa·s]
298.15 K	83.49
308.15 K	52.59
313.15 K	42.72
318.15 K	35.17
323.15 K	29.31
333.15 K	21.02
338.15 K	18.06
343.15 K	15.65
348.15 K	13.67
353.15 K	12
358.15 K	10.63
363.15 K	9.466

CCCn1cc[n+](C)c1.O=S(=O)([N-]S(=O)(=O)C(F)(F)F)C(F)(F)F + O
x2 = 0.272
Conditions	viscosity [mPa·s]
298.15 K	26.63
303.15 K	22.24
313.15 K	16.12
328.15 K	10.73
333.15 K	9.52
338.15 K	8.5
348.15 K	6.9
358.15 K	5.69
363.15 K	5.22

CCCCCCCCCCCn1cc[n+](C)c1.O=S(=O)([N-]S(=O)(=O)C(F)(F)F)C(F)(F)F + O
x2 = 0.1567
Conditions	viscosity [mPa·s]
298.15 K	96.4
303.15 K	75.7
308.15 K	60.46
313.15 K	49.36
318.15 K	40.26
323.15 K	33.49
328.15 K	28.17
333.15 K	24.19
343.15 K	17.77
348.15 K	15.5
353.15 K	13.94
358.15 K	12.05
363.15 K	10.72

CCCCCCCCn1cc[n+](CCCCCCCC)c1.O=S(=O)([N-]S(=O)(=O)C(F)(F)F)C(F)(F)F + O
x2 = 0.1246
Conditions	viscosity [mPa·s]
298.15 K	120.2
313.15 K	58.75
318.15 K	47.76
323.15 K	39.33
328.15 K	32.75
333.15 K	27.56
338.15 K	23.43
343.15 K	20.09
348.15 K	17.37
353.15 K	15.13
363.15 K	11.72

CCCCCn1cc[n+](CCCCC)c1.O=S(=O)([N-]S(=O)(=O)C(F)(F)F)C(F)(F)F + O
x2 = 0.1575
Conditions	viscosity [mPa·s]
298.15 K	66.87
303.15 K	53.1
308.15 K	42.91
318.15 K	29.21
323.15 K	24.56
328.15 K	20.86
333.15 K	17.88
343.15 K	13.46
348.15 K	11.83
353.15 K	10.46
363.15 K	8.34

Cn1cc[n+](C)c1.O=S(=O)([N-]S(=O)(=O)C(F)(F)F)C(F)(F)F + O
x2 = 0.3548
Conditions	viscosity [mPa·s]
298.15 K	18.59
303.15 K	15.87
308.15 K	13.73
313.15 K	11.99
318.15 K	10.57
323.15 K	9.39
328.15 K	8.39
333.15 K	7.55
338.15 K	6.84
343.15 K	6.22
348.15 K	5.69
353.15 K	5.23
358.15 K	4.82
363.15 K	4.46

CCCCCCCn1cc[n+](CCCCCCC)c1.O=S(=O)([N-]S(=O)(=O)C(F)(F)F)C(F)(F)F + O
x2 = 0.1365
Conditions	viscosity [mPa·s]
298.15 K	100.8
303.15 K	78.57
308.15 K	62.48
313.15 K	50.44
318.15 K	41.29
323.15 K	34.22
328.15 K	28.65
333.15 K	24.25
338.15 K	20.67
343.15 K	17.8
348.15 K	15.46
353.15 K	13.51
358.15 K	11.9
363.15 K	10.53

CCCC[n+]1ccn(C)c1.O=S(=O)([N-]S(=O)(=O)C(F)(F)F)C(F)(F)F + O
x2 = 0.257
Conditions	viscosity [mPa·s]
298.15 K	31.31
303.15 K	25.93
308.15 K	21.78
313.15 K	18.52
318.15 K	15.92
323.15 K	13.82
328.15 K	12.1
338.15 K	9.475
348.15 K	7.629
358.15 K	6.275
363.15 K	5.73

CCCCCCC[n+]1ccn(C)c1.O=S(=O)([N-]S(=O)(=O)C(F)(F)F)C(F)(F)F + O
x2 = 0.1971
Conditions	viscosity [mPa·s]
298.15 K	52.98
303.15 K	42.58
313.15 K	28.95
328.15 K	17.77
333.15 K	15.4
338.15 K	13.45
343.15 K	11.85
348.15 K	10.51
353.15 K	9.36
363.15 K	7.58

CCCn1cc[n+](CCC)c1.O=S(=O)([N-]S(=O)(=O)C(F)(F)F)C(F)(F)F + O
x2 = 0.2232
Conditions	viscosity [mPa·s]
298.15 K	35.66
308.15 K	24.31
318.15 K	17.47
323.15 K	15.05
328.15 K	13.09
338.15 K	10.15
343.15 K	9.03
353.15 K	7.29
358.15 K	6.6

CC[n+]1ccn(C)c1.O=S(=O)([N-]S(=O)(=O)C(F)(F)F)C(F)(F)F + O
x2 = 0.298
Conditions	viscosity [mPa·s]
298.15 K	18.97
308.15 K	14.06
318.15 K	10.83
323.15 K	9.63
328.15 K	8.615
338.15 K	7.02
343.15 K	6.382
348.15 K	5.832
353.15 K	5.35
358.15 K	4.926
363.15 K	4.549
